The nature of data set [1]: Half life in human serum at 400 mg, qd. In kind it is ADME, cell-free.
Data set [2] has as its target Human immunodeficiency virus type 1 reverse transcriptase (Human immunodeficiency virus 1) (UniProt Q72547). Put plainly: Inhibition of HIV1 3B reverse transcriptase infected in human PBMC cells after 4 days. In kind it is cell-based.
A short description of data set [3]: Lipophilicity, log P of the compound. In kind it is physicochemical. Conditions: octanol/water.
Data set [4] relates to Human immunodeficiency virus 1. Put plainly: Antiviral activity against HIV1 subtype B. Format: functional, organism-based. Conditions: Human immunodeficiency virus 1, subtype B.
Data set [5] concerns the target T1, Human immunodeficiency virus type 1 reverse transcriptase (Human immunodeficiency virus 1, UniProt Q72547). The data set is described as follows: Inhibition of HIV1 reverse transcriptase.
The target in data set [6] is T1, Human immunodeficiency virus type 1 reverse transcriptase. Put plainly: Inhibition of wild type recombinant HIV1 reverse transcriptase using poly(rA)-oligo(dT) as template/primer.
The nature of data set [7]: Half life in human serum at 100 mg, qd. In kind it is ADME, cell-free.
The nature of data set [8]: Half life in human serum at 600 mg, qd. In kind it is ADME, cell-free.
Data set [9] in a line: Half life in human serum at 200 mg, bid. In kind it is ADME, cell-free.
Data set [10] in a line: Tmax in rat. In kind it is ADME. Conditions: in vivo.
Data set [11] in a line: Cmax in rat. Conditions: in vivo. In kind it is ADME.
Data set [12] can be described thus: Cmax in Beagle dog. Format: ADME, Canis lupus familiaris. Conditions: in vivo.
The target of data set [13] is T1, Human immunodeficiency virus type 1 reverse transcriptase. The data set is described as follows: Inhibition of HIV1 reverse transcriptase derived from HIV patient plasma by LC/MS/MS analysis.
For data set [14], the target named is Human immunodeficiency virus type 1 reverse transcriptase (Human immunodeficiency virus 1) (UniProt Q72547).
A short description of data set [15]: Half life in human serum at 25 mg, qd. Format: ADME, cell-free.
Data set [16] in a line: Oral bioavailability in human. In kind it is ADME, organism-based. Conditions: in vivo.
The subject of data set [17] is Human immunodeficiency virus 1. Put plainly: Antiviral activity against HIV1. Format: functional, organism-based.
Data set [18] deals with Human immunodeficiency virus 1. The data set is described as follows: Antiviral activity against HIV1 assessed as serum adjusted potency. In kind it is functional, organism-based.

A word on the half-life: it is the time in which the quantity being followed falls by half. The low end stands for rapid decline, the high end for slow decline. The logP is a log measure of how a compound divides between an organic and an aqueous phase. The term EC50 denotes the concentration that produces a half-maximal response. Usually IC50 stands for the concentration that inhibits the measured activity by half. In general, Tmax refers to the time from dosing to the highest level. What is called Cmax is the maximum level reached in the sampled fluid or tissue. For orientation: IC90 means the point of the concentration-response curve where the effect stands at 90%. The term bioavailability denotes the share of a dose that reaches the circulation, judged against a reference dose that is usually intravenous. Low values mean poor availability, high ones good availability.

Compound `CC(C)Nc1cccnc1N1CCN(C(=O)c2cc3cc(NS(C)(=O)=O)ccc3[nH]2)CC1` [DELAVIRDINE] gave a half-life in [1] of 2 to 11 h.
In turn, `CCNc1cccnc1N1CCN(C(=O)c2cc(C)c(OC)c(C)c2)CC1` displayed an ED50 in data set [2] of 2 µM. This compound registered a logP in data set [3] of 3.3.
With `Cc1cc(/C=C/C#N)cc(F)c1Nc1ccc(F)c(Nc2ccc(C#N)cc2)n1`, in data set [4], the concentration giving a half-maximal response (EC50) came out at 1000 µM.
Consider `COc1ccc2[nH]c(C(=O)N3CCN(c4ncccc4NC(C)C)CC3)cc2c1`, for which the ED50 in data set [2] is 0.3 µM.
In the case of `CCNc1cccnc1N1CCN(C(=O)c2cc3ccccc3[nH]2)CC1`, in [2], the ED50 came to 0.3 µM.
For `O=S1(c2ccccc2)=NC(=S)Nc2ccccc21` (centres undefined), in data set [5], the IC50 was in the range of 0.95 to 5.11 µM.
In turn, `CCN1c2ncccc2C(=O)N(C)c2cccnc21` showed a logP in [3] of 1.84.
Regarding `CCNc1cccnc1N1CCN(Cc2cc(C)c(OC)c(C)c2)CC1`, the half-maximal inhibitory concentration (IC50) in data set [6] was determined as 20 µM. The ED50 in data set [2] was 2 µM.
Compound `O=C1Nc2cccnc2Nc2ncccc21` returned a logP in data set [3] of 1.03.
On the same count and under the same terms, with `CCN1c2ccccc2N(C)C(=O)c2cccnc21` the figure was 2.46; with `Cc1ccnc2c1NC(=O)c1cccnc1N2`, 1.52.
In turn, `Cn1c(Cn2ccc(C(F)(F)F)c(Oc3cc(Cl)cc(C#N)c3)c2=O)n[nH]c1=O` [DORAVIRINE] had a half-life in [7] of 11 to 15 h.
In the case of `O=C1Nc2ccc(Cl)cc2[C@@](C#CC2CC2)(C(F)(F)F)O1` [EFAVIRENZ], the half-life in data set [8] is 40 to 55 h.
Turning to `CC(C)Nc1cccnc1N1CCN(C(=O)c2cc3ccccc3[nH]2)CC1`, the ED50 in data set [2] was found to be 0.3 µM.
As to `Cc1cn([C@H]2C[C@H](N=[N+]=[N-])[C@@H](CO)O2)c(=O)[nH]c1=O`, the ED50 in data set [2] was 0.07 µM.
In data set [3], `O=C1Nc2ccccc2Nc2ncccc21` showed a lipophilicity (logP) of 1.65.
For the compound `CC1O[C@](/C=C/C2CC2)(C(F)(F)F)c2cc(Cl)ccc2NC1=O` (some centres undefined), the half-inhibitory concentration (IC50) in data set [5] turned out to be 0.046 µM.
`Cc1cc(C#N)cc(C)c1Oc1nc(Nc2ccc(C#N)cc2)nc(N)c1Br` [ETRAVIRINE] showed a half-life in [9] of 41 h.
In the case of `CCNc1cccnc1N1CCN(C(=O)c2cc3cc(OC)ccc3[nH]2)CC1.CS(=O)(=O)O` [ATEVIRDINE SULPHATE], in data set [10], the Tmax was 0.5 to 1 h. Besides, the Cmax in [11] lay in the range of 4.6 to 17.4 µM; in data set [12] it was 16 to 33 µM. The same compound showed a lipophilicity (logP) in data set [3] of 1.28.
Compound `CC1O[C@](C#CC2CC2)(C(F)(F)F)c2cc(Cl)ccc2NC1=O` (some centres undefined) returned a concentration for half-maximal inhibition (IC50) in [5] of 0.082 µM.
With `O=C1Nc2cccnc2Nc2ccccc21`, the 50% inhibitory concentration (IC50) in data set [13] amounted to 6 µM.
`NC(=O)c1[nH]c2cccc(Cl)c2c1S(=O)(=O)c1ccccc1` returned an EC50 in data set [4] of 1 µM.
`CC(C)Nc1cccnc1N1CCN(C(=O)c2cc3cc(F)ccc3[nH]2)CC1` registered an ED50 in [2] of 0.3 µM.
In turn, `O=C1Nc2ccc(Cc3ccccc3)cc2[C@@](C#CC2CC2)(C(F)(F)F)O1` had a 90% effect concentration (IC90) in data set [14] of 0.279 µM.
As to `Cc1cc(/C=C/C#N)cc(C)c1Nc1ccnc(Nc2ccc(C#N)cc2)n1` [RILPIVIRINE], the half-life in data set [15] is 50 h.
`CCOC1(c2ccccc2)c2cc(Cl)ccc2NC(=S)N1C` (centres undefined) showed an IC50 in data set [5] of 0.056 µM.
For the compound `Cc1cc(/C=C/C#N)cc(F)c1Nc1cccc(Nc2ccc(C#N)cc2)n1`, the concentration giving a half-maximal response (EC50) in data set [4] amounted to 5500 µM.
`Cc1ccnc2c1NC(=O)c1cccnc1N2C1CC1` [NEVIRAPINE]: the half-life in data set [9] lay within 25 to 30 h. In data set [16], the bioavailability stood at 95%. In data set [3], this compound showed a logP of 2.05.
`CCN1c2ncccc2C(=O)Nc2c(C)ccnc21`: the log partition coefficient (logP) in data set [3] is 2.09.
`NC(=O)c1[nH]c2ccccc2c1S(=O)(=O)c1ccccc1`: in data set [4], the midpoint of the response, the EC50, lay at 180 µM.
`N#Cc1cc(Cl)cc(Oc2c(Br)ccc(CC(=O)Nc3ccc(S(N)(=O)=O)cc3Cl)c2F)c1` [DEPULFAVIRINE]: the concentration giving a half-maximal response (EC50) was 0.0012 µM in [17] and 0.0138 µM in [18].

Source of the values: ChEMBL document CHEMBL4393650, “The Journey of HIV-1 Non-Nucleoside Reverse Transcriptase Inhibitors (NNRTIs) from Lab to Clinic” (J Med Chem, 2019).
